Assay results: ChEMBL document CHEMBL4270593, “Novel spiroindoline HDAC inhibitors: Synthesis, molecular modelling and biological studies” (Eur J Med Chem, 2018)
Activity calls are given as the source filed them. The calls are words filed in the database; no cut-off is given here.

Tests used:
Histone deacetylase 1 = Histone deacetylase 1 (Homo sapiens, UniProt Q13547); assay: Inhibition of human recombinant C-terminal His/FLAG-tagged full length HDAC1 expressed in insect SF9 cells using fluorogenic ZMAL as substrate after 90 mins by fluorescence-based assay
Homo sapiens [1] = species: Homo sapiens; assay: Selectivity ratio of IC50 for human recombinant C-terminal His/FLAG-tagged full length HDAC1 to IC50 for N-terminal GST-tagged full length HDAC6
[2] = molecular target: T1, Protein deacetylase HDAC6 (Homo sapiens, UniProt Q9UBN7); assay: Inhibition of human recombinant N-terminal GST-tagged full length HDAC6 expressed in insect SF9 cells using fluorogenic ZMAL as substrate after 90 mins by fluorescence-based assay
T1 sequence (Q9UBN7 whole entry): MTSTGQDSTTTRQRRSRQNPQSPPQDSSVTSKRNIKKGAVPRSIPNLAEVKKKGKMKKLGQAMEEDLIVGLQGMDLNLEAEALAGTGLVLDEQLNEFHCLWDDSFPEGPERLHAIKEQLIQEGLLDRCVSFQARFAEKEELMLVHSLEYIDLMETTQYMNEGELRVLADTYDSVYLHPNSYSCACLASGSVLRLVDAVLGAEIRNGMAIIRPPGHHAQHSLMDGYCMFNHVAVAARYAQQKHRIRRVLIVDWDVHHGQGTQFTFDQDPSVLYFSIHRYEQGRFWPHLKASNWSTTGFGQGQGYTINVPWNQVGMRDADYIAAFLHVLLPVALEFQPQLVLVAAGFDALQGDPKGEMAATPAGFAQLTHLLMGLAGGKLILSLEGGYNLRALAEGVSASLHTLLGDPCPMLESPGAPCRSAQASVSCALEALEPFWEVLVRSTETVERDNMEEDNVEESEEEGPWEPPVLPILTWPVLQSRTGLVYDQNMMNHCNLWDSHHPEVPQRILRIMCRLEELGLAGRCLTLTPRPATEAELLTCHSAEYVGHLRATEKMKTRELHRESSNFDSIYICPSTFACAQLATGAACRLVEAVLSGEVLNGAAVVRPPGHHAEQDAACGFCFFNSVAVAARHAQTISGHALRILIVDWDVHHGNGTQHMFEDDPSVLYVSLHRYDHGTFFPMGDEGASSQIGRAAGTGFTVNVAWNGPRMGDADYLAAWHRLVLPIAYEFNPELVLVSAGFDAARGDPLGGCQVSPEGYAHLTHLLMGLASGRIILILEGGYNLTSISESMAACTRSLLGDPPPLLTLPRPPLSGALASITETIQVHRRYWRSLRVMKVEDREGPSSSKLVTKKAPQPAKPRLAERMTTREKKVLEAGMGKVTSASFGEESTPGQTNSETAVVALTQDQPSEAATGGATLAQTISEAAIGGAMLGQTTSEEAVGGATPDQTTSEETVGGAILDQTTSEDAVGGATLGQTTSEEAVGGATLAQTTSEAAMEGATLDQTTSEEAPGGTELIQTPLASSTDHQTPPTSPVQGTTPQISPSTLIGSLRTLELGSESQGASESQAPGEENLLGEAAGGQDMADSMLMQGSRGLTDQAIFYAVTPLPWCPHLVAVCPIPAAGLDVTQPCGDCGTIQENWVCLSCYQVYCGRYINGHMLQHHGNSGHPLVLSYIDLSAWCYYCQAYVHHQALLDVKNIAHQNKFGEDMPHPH

[3] = Inhibition of class 1 HDAC in human U87 cells assessed as levels of histone H3 acetylation at lysine 9/14 at 1 uM after 30 hrs by Western blot analysis relative to control; settings: u87, 30 h
[4] = Inhibition of class 1 HDAC in human U87 cells assessed as levels of histone H3 acetylation at lysine 9/14 at 5 uM after 30 hrs by Western blot analysis relative to control; settings: u87, 30 h
[5] = Inhibition of class 1 HDAC in human NB4 cells assessed as levels of histone H3 acetylation at lysine 9/14 at 1 uM after 30 hrs by Western blot analysis relative to control
[6] = Inhibition of class 1 HDAC in human NB4 cells assessed as levels of histone H3 acetylation at lysine 9/14 at 5 uM after 30 hrs by Western blot analysis relative to control
[7] = molecular target: T2, Protein deacetylase HDAC6 (Homo sapiens) (UniProt Q9UBN7); assay: Inhibition of HDAC6 in human U87 cells assessed as increase in levels of alpha-tubulin acetylation after 30 hrs by Western blot analysis; type: cell-based
T2 sequence (whole entry): T1 sequence (Q9UBN7 whole entry)

Histone deacetylase 8 = molecular target: T3, Histone deacetylase 8 (Homo sapiens, UniProt Q9BY41); assay: Inhibition of human recombinant HDAC8 using fluor de Lys(R) as substrate after 90 mins by fluorescence-based assay
T3 sequence (Q9BY41 whole entry): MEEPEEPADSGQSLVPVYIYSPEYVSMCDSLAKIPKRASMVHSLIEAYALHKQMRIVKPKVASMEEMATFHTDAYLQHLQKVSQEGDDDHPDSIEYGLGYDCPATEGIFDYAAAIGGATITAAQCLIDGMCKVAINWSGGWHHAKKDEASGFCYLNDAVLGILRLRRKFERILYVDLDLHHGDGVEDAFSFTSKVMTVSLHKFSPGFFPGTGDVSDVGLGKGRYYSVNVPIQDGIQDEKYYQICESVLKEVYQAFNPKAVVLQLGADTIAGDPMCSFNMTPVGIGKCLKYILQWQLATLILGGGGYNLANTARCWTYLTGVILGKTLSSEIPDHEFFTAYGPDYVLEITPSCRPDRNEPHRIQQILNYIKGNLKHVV

Homo sapiens [8] = species: Homo sapiens; assay: Selectivity ratio of IC50 for human recombinant C-terminal His/FLAG-tagged full length HDAC2 to IC50 for human recombinant N-terminal GST-tagged full length HDAC6
Homo sapiens [9] = species: Homo sapiens; assay: Selectivity ratio of IC50 for human recombinant C-terminal His-tagged full length HDAC3/NcoR2 to IC50 for human recombinant N-terminal GST-tagged full length HDAC6
NB-4 [10] = assay: Induction of cell cycle arrest in human NB4 cells assessed as accumulation at G1 phase at 5 uM after 30 hrs by propidium iodide-based FACS analysis; type: functional
[11] = Inhibition of class 1 HDAC in human SH-SY5Y cells assessed as levels of histone H3 acetylation at lysine 9/14 at 1 uM after 30 hrs by Western blot analysis relative to control
[12] = Inhibition of class 1 HDAC in human SH-SY5Y cells assessed as levels of histone H3 acetylation at lysine 9/14 at 5 uM after 30 hrs by Western blot analysis relative to control
NB-4 [13] = assay: Induction of cell cycle arrest in human NB4 cells assessed as accumulation at G1 phase after 30 hrs by propidium iodide-based FACS analysis; type: functional
NB-4 [14] = assay: Induction of cell death in human NB4 cells assessed as DNA fragmentation at 5 uM after 30 hrs by propidium iodide-based FACS analysis; type: functional
[15] = Cytotoxicity against mouse NIH/3T3 cells assessed as reduction in cell viability by neutral red uptake test; type: cell-based, NIH3T3; settings: read-out: TC50 (the source's name)
[16] = molecular target: T2, Protein deacetylase HDAC6 (Homo sapiens); assay: Inhibition of HDAC6 in human SH-SY5Y cells assessed as reduction in cell migration at 5 uM measured every 2 mins for 4 days by RTCA based assay
[17] = molecular target: T2, Protein deacetylase HDAC6 (Homo sapiens); assay: Inhibition of HDAC6 in human SH-SY5Y cells assessed as increase in levels of alpha-tubulin acetylation after 30 hrs by Western blot analysis; type: cell-based

Sequence of Histone deacetylase 1 (Q13547 whole entry): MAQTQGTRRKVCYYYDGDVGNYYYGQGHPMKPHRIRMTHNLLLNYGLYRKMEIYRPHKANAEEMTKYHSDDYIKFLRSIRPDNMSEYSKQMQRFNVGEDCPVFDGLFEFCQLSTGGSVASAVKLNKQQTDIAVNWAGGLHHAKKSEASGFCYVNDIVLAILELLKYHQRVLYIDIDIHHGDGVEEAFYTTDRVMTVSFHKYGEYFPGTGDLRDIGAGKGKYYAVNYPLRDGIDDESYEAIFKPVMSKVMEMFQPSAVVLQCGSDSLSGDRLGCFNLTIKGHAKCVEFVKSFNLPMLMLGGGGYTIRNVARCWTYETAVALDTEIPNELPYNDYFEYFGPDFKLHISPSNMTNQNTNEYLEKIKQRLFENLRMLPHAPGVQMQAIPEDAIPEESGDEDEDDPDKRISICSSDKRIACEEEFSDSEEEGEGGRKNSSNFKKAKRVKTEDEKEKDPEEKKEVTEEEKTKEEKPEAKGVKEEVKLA

Structure (SMILES) | IC50 (Histone deacetylase 1) | Ratio IC50 (Homo sapiens [1]) | IC50 [2] | FC [3] | FC [4] | FC [5] | FC [6] | other results
CC(=O)N1CCC2(CC1)CN(Cc1ccc(C(=O)NO)cc1)c1ccccc12 | 7.29 µM | 116 | 62.5 nM | – | – | – | – | –
O=C(NO)c1ccc(CN2CC3(CCCCC3)c3ccccc32)cc1 | 6.79 µM | 166 | 40.9 nM | 1.77 | 2.21 | 2.27 | 2.58 | inhibition [7]: Dose-dependent effect; IC50 (Histone deacetylase 8): 253 nM
CC(C)(C)OC(=O)N1CCC2(CC1)CN(Cc1ccc(C(=O)NO)s1)c1ccccc12 | 10.9 µM | 15 | 719 nM | – | – | – | – | IC50 (Histone deacetylase 8): 1340 nM
CN1CCC2(CC1)CN(Cc1ccc(C(=O)NO)s1)c1ccccc12 | 11.4 µM | 6 | 1780 nM | – | – | – | – | –
O=C(CCCCCCNC(=O)c1cnc(N(c2ccccc2)c2ccccc2)nc1)NO | – | 10 | – | – | – | – | – | Ratio IC50 (Homo sapiens [8]): 10; Ratio IC50 (Homo sapiens [9]): 10
CC(C)(C)C(=O)N1CCC2(CC1)CN(Cc1ccc(C(=O)NO)cc1)c1ccccc12 | 4.47 µM | 74 | 60.1 nM | – | – | – | – | Activity (NB-4 [10]): Active
CN1CCc2c(c3ccccc3n2Cc2ccc(C(=O)NO)cc2)C1 [TUBASTATIN A] | – | – | – | 1.68 to 1.97 | 2.18 to 2.38 | 0.84 | 0.97 | FC [11]: 1.13; FC [12]: 1.17
O=C(CCCCCCC(=O)Nc1ccccc1)NO | – | – | – | – | – | – | – | Activity (NB-4 [13]): Active
O=C(CCCCCCNC(=O)c1cnc(N(c2ccccc2)c2ccccc2Cl)nc1)NO | – | 10 | – | – | – | – | – | Ratio IC50 (Homo sapiens [8]): 10; Ratio IC50 (Homo sapiens [9]): 10
CC(C)(C)OC(=O)N1CCC2(CC1)CN(Cc1ccc(C(=O)NO)cc1)c1ccccc12 | 4 µM | 95 | 41.9 nM | 2.74 | 2.12 | 1.12 | 0.96 | Activity (NB-4 [14]): Active; CC50 [15]: 23 µM; inhibition [16]: Active; inhibition [17]: Dose-dependent effect; FC [11]: 1.1; FC [12]: 1.11; IC50 (Histone deacetylase 8): 1600 nM
CN1CCC2(CC1)CN(Cc1ccc(C(=O)NO)cc1)c1ccccc12 | 11.7 µM | 57 | 204 nM | 1.83 | 1.6 | 1.02 | 2.44 | inhibition [7]: Dose-dependent effect
